Results from ChEMBL document CHEMBL1201862, “PubChem BioAssay data set” (2004).
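In this assay, cells in 96-well plates receive the compound at five concentrations for 48 hours. Endpoints are linearly interpolated between the surrounding concentrations. At the GI50, growth is halved.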 Calls of active or inactive are those of the source. Rule as the data show it: active = GI50 up to about 1.1 µM and inactive = higher.

Tests used:
Assay in all cases: inhibition of tumour cell growth, NCI panel, 48 h
786-0 = tested on: 786-0
A498 = tested on: A498
A549 = tested on: A549
ACHN = tested on: ACHN
BT-549 = tested on: BT-549
CAKI-1 = tested on: CAKI-1
CCRF-CEM = tested on: CCRF-CEM
COLO 205 = tested on: COLO 205
DU-145 = tested on: DU-145
EKVX = tested on: EKVX
HCC 2998 = tested on: HCC 2998
HCT-116 = tested on: HCT-116
HCT-15 = tested on: HCT-15
HL-60 = tested on: HL-60
HOP-62 = tested on: HOP-62
HOP-92 = tested on: HOP-92
HT-29 = tested on: HT-29
Hs-578T = tested on: Hs-578T
IGROV-1 = tested on: IGROV-1
K562 = tested on: K562
KM12 = tested on: KM12
LOX IMVI = tested on: LOX IMVI
M14 = tested on: M14
MCF7 = tested on: MCF7
MDA-MB-231 = tested on: MDA-MB-231
MDA-MB-435 = tested on: MDA-MB-435
MDA-N = tested on: MDA-N
MOLT-4 = tested on: MOLT-4
Malme-3M = tested on: Malme-3M
NCI-H226 = tested on: NCI-H226
NCI-H23 = tested on: NCI-H23
NCI-H460 = tested on: NCI-H460
NCI-H522 = tested on: NCI-H522
NCI/ADR-RES = tested on: NCI/ADR-RES
OVCAR-3 = tested on: OVCAR-3
OVCAR-4 = tested on: OVCAR-4
OVCAR-5 = tested on: OVCAR-5
OVCAR-8 = tested on: OVCAR-8
PC-3 = tested on: PC-3
RPMI-8226 = tested on: RPMI-8226
RXF 393 = tested on: RXF 393
SF-268 = tested on: SF-268
SF-295 = tested on: SF-295
SF-539 = tested on: SF-539
SK-MEL-28 = tested on: SK-MEL-28
SK-MEL-2 = tested on: SK-MEL-2
SK-MEL-5 = tested on: SK-MEL-5
SK-OV-3 = tested on: SK-OV-3
SN12C = tested on: SN12C
SNB-19 = tested on: SNB-19
SW-620 = tested on: SW-620
T47D = tested on: T47D
TK-10 = tested on: TK-10
U-251 = tested on: U-251
UACC-257 = tested on: UACC-257
UACC-62 = tested on: UACC-62
UO-31 = tested on: UO-31
SNB-75 = tested on: SNB-75

Measured: GI50

C=CCCCCOC1C=CC(OC(C)=O)C(COC(C)=O)O1 (stereo not drawn)
> 100 µM: HCT-15
inactive: 786-0 > 100 µM | A498 > 100 µM | A549 > 100 µM | ACHN > 100 µM | BT-549 > 100 µM | CAKI-1 > 100 µM | CCRF-CEM > 100 µM | COLO 205 > 100 µM | DU-145 > 100 µM | EKVX > 100 µM | HCC 2998 > 100 µM | HCT-116 > 100 µM | HL-60 > 100 µM | HOP-62 > 100 µM | HOP-92 > 100 µM | HT-29 > 100 µM | IGROV-1 > 100 µM | K562 > 10 µM | KM12 > 100 µM | LOX IMVI > 100 µM | M14 > 100 µM | MCF7 > 100 µM | MDA-MB-231 > 100 µM | MDA-MB-435 > 100 µM | MDA-N > 100 µM | MOLT-4 > 100 µM | Malme-3M > 100 µM | NCI-H226 > 100 µM | NCI-H23 > 100 µM | NCI-H460 > 100 µM | NCI-H522 > 100 µM | NCI/ADR-RES > 100 µM | OVCAR-3 > 100 µM | OVCAR-4 > 100 µM | OVCAR-5 > 100 µM | OVCAR-8 > 100 µM | PC-3 > 100 µM | RPMI-8226 > 100 µM | RXF 393 > 100 µM | SF-268 > 100 µM | SF-295 > 100 µM | SF-539 > 100 µM | SK-MEL-28 > 100 µM | SK-MEL-2 > 100 µM | SK-MEL-5 > 100 µM | SK-OV-3 > 100 µM | SN12C > 100 µM | SNB-19 > 100 µM | SW-620 > 100 µM | T47D > 100 µM | TK-10 > 100 µM | U-251 > 100 µM | UACC-257 > 100 µM | UACC-62 > 100 µM | UO-31 > 100 µM
active: Hs-578T 0.324 µM

CC(=O)Nc1ccc2c(c1)/C(=C\c1ccc([N+](C)(C)C)cc1)c1ccccc1-2
inactive: 786-0 77.8 µM | A498 42.1 µM | A549 33.7 µM | ACHN > 100 µM | BT-549 34.3 µM | CAKI-1 > 100 µM | CCRF-CEM 22.5 µM | COLO 205 18 µM | DU-145 89.3 µM | EKVX 26.5 µM | HCC 2998 55.6 µM | HCT-116 85.3 µM | HL-60 24.8 µM | HOP-62 48.3 µM | HOP-92 18.1 µM | HT-29 35.5 µM | Hs-578T 35.4 µM | IGROV-1 35.4 µM | K562 29.6 µM | KM12 31.9 µM | LOX IMVI 47.9 µM | M14 16 µM | MCF7 32 µM | MDA-MB-231 4.43 µM | MDA-MB-435 36.2 µM | MDA-N 32.8 µM | MOLT-4 32.9 µM | Malme-3M 39.3 µM | NCI-H226 23.1 µM | NCI-H23 64.4 µM | NCI-H460 34.9 µM | NCI-H522 32.9 µM | NCI/ADR-RES > 100 µM | OVCAR-3 36.5 µM | OVCAR-4 35.3 µM | OVCAR-5 18.8 µM | OVCAR-8 41.7 µM | PC-3 19.9 µM | RPMI-8226 24.9 µM | RXF 393 > 100 µM | SF-268 64.9 µM | SF-295 46.1 µM | SK-MEL-28 35.5 µM | SK-MEL-5 24.2 µM | SK-OV-3 61.7 µM | SN12C 31 µM | SNB-19 23.6 µM | SNB-75 28.1 µM | SW-620 44.1 µM | T47D 23.2 µM | TK-10 > 100 µM | U-251 18.4 µM | UACC-257 30.6 µM | UACC-62 48 µM | UO-31 29.6 µM
> 100 µM: HCT-15
